Assay: xn = mol fraction of the nth substance listed

COc1ccc(C)cc1 + CCCCCOC(C)=O
Settings | viscosity [mPa·s]
298.15 K, 101 kPa, x1 = 0.5 | 0.8602

Cc1ccccc1C(=O)O + O=C1CCCCCN1
101 kPa, x2 = 0.67
Settings | viscosity [mPa·s]
303.2 K | 108.3
313.1 K | 58.33
323.1 K | 34.26

Oc1nc(O)nc(O)n1 + c1ccncc1
Settings | viscosity [mPa·s]
298.15 K, 101 kPa, x1 = 0.0199 | 1.038

CCCOC(C)=O + c1ccccc1
Settings | viscosity [mPa·s]
298.15 K, 101.3 kPa, x2 = 0.246 | 0.537
298.15 K, 101.3 kPa, x2 = 0.4714 | 0.537
298.15 K, 101.3 kPa, x2 = 0.6809 | 0.551
298.15 K, 101.3 kPa, x2 = 0.8404 | 0.563
303.15 K, 101.33 kPa, x2 = 0.0633 | 0.514
303.15 K, 101.33 kPa, x2 = 0.1259 | 0.515
303.15 K, 101.33 kPa, x2 = 0.1865 | 0.513
303.15 K, 101.33 kPa, x2 = 0.3006 | 0.512
303.15 K, 101.33 kPa, x2 = 0.4062 | 0.513
303.15 K, 101.33 kPa, x2 = 0.5133 | 0.514
303.15 K, 101.33 kPa, x2 = 0.6141 | 0.517
303.15 K, 101.33 kPa, x2 = 0.7078 | 0.524
303.15 K, 101.33 kPa, x2 = 0.7972 | 0.529
303.15 K, 101.33 kPa, x2 = 0.8812 | 0.539
303.15 K, 101.33 kPa, x2 = 0.9631 | 0.551
308.15 K, 101.3 kPa, x2 = 0.246 | 0.477
308.15 K, 101.3 kPa, x2 = 0.4714 | 0.48
308.15 K, 101.3 kPa, x2 = 0.8404 | 0.49
313.15 K, 101.33 kPa, x2 = 0.1951 | 0.448
313.15 K, 101.33 kPa, x2 = 0.4024 | 0.449
313.15 K, 101.33 kPa, x2 = 0.5082 | 0.453
313.15 K, 101.33 kPa, x2 = 0.6029 | 0.455
313.15 K, 101.33 kPa, x2 = 0.8029 | 0.466

CCOC(=O)c1ccccc1O + CS(C)=O
303.15 K, 101 kPa
Settings | viscosity [mPa·s]
x1 = 0.0499 | 1.888
x1 = 0.1687 | 2.196
x1 = 0.2404 | 2.294
x1 = 0.3226 | 2.533
x1 = 0.4179 | 2.57
x1 = 0.5265 | 2.723
x1 = 0.6564 | 2.843

ClC(Cl)(Cl)Cl + c1ccncc1
298.15 K, 101 kPa
Settings | viscosity [mPa·s]
x1 = 0.09 | 0.9206
x1 = 0.1492 | 0.9404
x1 = 0.2381 | 0.9623
x1 = 0.293 | 0.9729
x1 = 0.37 | 0.9819
x1 = 0.4337 | 0.9847
x1 = 0.4561 | 0.9841
x1 = 0.4972 | 0.9842
x1 = 0.6006 | 0.9751
x1 = 0.738 | 0.9538
x1 = 0.7863 | 0.943
x1 = 0.8636 | 0.9286
x1 = 0.9447 | 0.912

ClC(Cl)(Cl)Cl + ClCCCl
303.15 K, 101.3 kPa
Settings | viscosity [mPa·s]
x2 = 0.1081 | 0.7755
x2 = 0.1414 | 0.7609
x2 = 0.1994 | 0.739
x2 = 0.3171 | 0.7081
x2 = 0.3777 | 0.6975
x2 = 0.5001 | 0.6832
x2 = 0.5454 | 0.6817
x2 = 0.5978 | 0.6814
x2 = 0.6503 | 0.6809
x2 = 0.6758 | 0.6824
x2 = 0.7592 | 0.6879
x2 = 0.8193 | 0.6942
x2 = 0.8711 | 0.7016
x2 = 0.8965 | 0.7055
x2 = 0.934 | 0.7126

From the CheMixHub viscosity set
